Reference: ChEMBL document CHEMBL6127121, “Development of N-(4-(1H-Imidazol-1-yl)phenyl)-4-chlorobenzenesulfonamide, a Novel Potent Inhibitor of β-Catenin with Enhanced Antitumor Activity and Metabolic Stability” (J Med Chem, 2024)
Activity calls are given as the source filed them. No cut-off for these calls is given here.

How the values were obtained:
SW480 [1] = experiment: Inhibition of Wnt/beta-catenin signaling in human SW480 cells assessed as residual activity at IC50 concentration incubated for 12 hrs by Topflash/Fopflash Dual-Glo luciferase reporter assay; format: cell-based; conditions: dose 30.0 µM
HCT-116 [2] = experiment: Inhibition of Wnt/beta-catenin signaling in human HCT-116 cells assessed as residual activity at IC50 concentration incubated for 12 hrs by Topflash/Fopflash Dual-Glo luciferase reporter assay; format: cell-based; conditions: dose 30.0 µM
SW480 [3] = experiment: Inhibition of cell growth in human SW480 cells incubated for 48 to 72 hrs by XTT method; format: functional, cell-based
HCT-116 [4] = experiment: Inhibition of cell growth in human HCT-116 cells incubated for 48 to 72 hrs by XTT method; format: functional, cell-based
MDA-MB-231 [5] = experiment: Antiproliferative activity against human MDA-MB-231 cells at 40 uM incubated for 24 hrs by IncuCyte live-cell imaging analysis; format: functional, cell-based
[6] = molecular target: T1, Catenin beta-1 (Homo sapiens) (UniProt P35222); experiment: Inhibition of beta-catenin in human HCT-116 cells transfected with luciferase based vectors at 1 to 10 nM incubated for 48 hrs in presence of LiCl; format: cell-based; conditions: dose 1-10 nM
T1 sequence (whole entry): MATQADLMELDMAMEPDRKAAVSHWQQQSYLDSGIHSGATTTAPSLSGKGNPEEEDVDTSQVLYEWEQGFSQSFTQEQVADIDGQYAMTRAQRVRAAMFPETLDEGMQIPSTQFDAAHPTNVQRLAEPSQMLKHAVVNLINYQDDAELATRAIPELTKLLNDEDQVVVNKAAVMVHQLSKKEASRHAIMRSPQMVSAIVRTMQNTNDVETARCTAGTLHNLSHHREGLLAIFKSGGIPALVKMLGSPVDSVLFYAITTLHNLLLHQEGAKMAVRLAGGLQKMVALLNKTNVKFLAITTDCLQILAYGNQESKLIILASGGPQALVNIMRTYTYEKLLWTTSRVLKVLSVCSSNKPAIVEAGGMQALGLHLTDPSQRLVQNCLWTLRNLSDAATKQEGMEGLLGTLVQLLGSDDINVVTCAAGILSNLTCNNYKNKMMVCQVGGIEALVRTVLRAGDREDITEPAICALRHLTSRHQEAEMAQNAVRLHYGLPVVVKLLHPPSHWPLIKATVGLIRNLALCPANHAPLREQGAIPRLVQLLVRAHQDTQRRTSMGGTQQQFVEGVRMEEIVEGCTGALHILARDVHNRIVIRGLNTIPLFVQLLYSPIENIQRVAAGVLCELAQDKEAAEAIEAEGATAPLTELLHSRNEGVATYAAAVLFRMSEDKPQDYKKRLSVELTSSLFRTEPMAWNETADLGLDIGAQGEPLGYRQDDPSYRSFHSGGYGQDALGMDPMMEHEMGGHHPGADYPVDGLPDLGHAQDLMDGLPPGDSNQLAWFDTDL

[7] = molecular target: T1, Catenin beta-1 (Homo sapiens); experiment: Inhibition of beta-catenin in human HCT-116 cells transfected with luciferase based vectors incubated for 24 hrs in presence of LiCl; format: cell-based; conditions: dose 50-100 nM
HCT-116 [8] = experiment: Downregulation of beta-catenin protein level in human HCT-116 cells incubated for 24 hrs in presence of 50 mM LiCl by Western blotting analysis; format: functional, cell-based; conditions: dose 10-100 µM
HCT-116 [9] = experiment: Downregulation of c-Myc protein level in human HCT-116 cells incubated for 24 hrs in presence of 50 mM LiCl by Western blotting analysis; format: functional, cell-based; conditions: dose 10-100 µM
HCT-116 [10] = experiment: Downregulation of c-Myc mRNA level in human HCT-116 cells incubated for 24 hrs in presence of 50 mM LiCl by qPCR analysis; format: functional, cell-based; conditions: dose 10-100 µM
[11] = Downregulation of c-Myc mRNA level in human HCT-116 cells at 10 uM incubated for 24 hrs in presence of 50 mM LiCl by qPCR analysis; format: functional
HCT-116 [12] = experiment: Downregulation of Fgf20 mRNA level in human HCT-116 cells at 10 uM incubated for 24 hrs by qPCR analysis; format: functional, cell-based
HCT-116 [13] = experiment: Downregulation of Sall4 mRNA level in human HCT-116 cells at 10 uM incubated for 24 hrs by qPCR analysis; format: functional, cell-based
HCT-116 [14] = experiment: Antitumor activity against human HCT-116 cells xenografted in BALB/c nu/nu mouse assessed as reduction in tumor volume at 25 mg/kg, ip administered every 2 days for 30 day; format: functional, organism-based
HCT-116 [15] = experiment: Antitumor activity against human HCT-116 cells xenografted in BALB/c nu/nu mouse assessed as reduction in tumor weight at 25 mg/kg, ip administered every 2 days for 30 day; format: functional, organism-based
HCT-116 [16] = experiment: Antitumor activity against human HCT-116 cells xenografted in BALB/c nu/nu mouse assessed as reduction in nuclear Ki67 expression at 25 mg/kg, ip administered every 2 days for 30 day by […] based assay; format: functional, organism-based
[17] = Metabolic stability in human liver microsomes assessed as intrinsic clearance per mg protein preincubated for 10 mins followed by NADP, glucose-6-phosphate and glucose-6-phosphate dehydrogenase addition and measured upto 60 mins by LC-MS/MS analysis; format: ADME, Microsome; conditions: time < 70 min, read-out: CLH
[18] = Metabolic stability in human liver microsomes assessed as half life preincubated for 10 mins followed by NADP, glucose-6-phosphate and glucose-6-phosphate dehydrogenase addition and measured upto 60 mins by LC-MS/MS analysis; format: ADME, Microsome; conditions: time < 70 min
[19] = Metabolic stability in mouse liver microsomes assessed as intrinsic clearance per mg protein preincubated for 10 mins followed by NADP, glucose-6-phosphate and glucose-6-phosphate dehydrogenase addition and measured upto 60 mins by LC-MS/MS analysis; format: ADME, Microsome; conditions: time < 70 min, read-out: CLH
[20] = Metabolic stability in mouse liver microsomes assessed as half life preincubated for 10 mins followed by NADP, glucose-6-phosphate and glucose-6-phosphate dehydrogenase addition and measured upto 60 mins by LC-MS/MS analysis; format: ADME, Microsome; conditions: time < 70 min
MDA-MB-231 [21] = experiment: Antiproliferative activity against human MDA-MB-231 cells at 1.48 to 40 uM incubated for 72 hrs by IncuCyte live-cell imaging analysis; format: functional, cell-based; conditions: dose 1.48-40 µM

Row | Structure (SMILES) | Activity (SW480 [1]) | Activity (HCT-116 [2]) | EC50 (SW480 [3]) | EC50 (HCT-116 [4]) | other results
1 | O=S(=O)(Nc1ccc(-c2ccccc2)cc1)c1ccc(C(F)(F)F)cc1 | 37.3% | 22.4% | 8.7 µM | 12 µM | 
2 | O=S(=O)(Nc1cccc(-c2ccco2)c1)c1ccc(C(F)(F)F)cc1 | 5.3% | 2.7% | > 50 µM | > 50 µM | 
3 | O=S(=O)(Nc1ccc(-c2cccs2)cc1)c1ccc(C(F)(F)F)cc1 | 26.6% | 33.1% | 45 µM | 39 µM | 
4 | O=C1[C@H](Cc2ccc(O)cc2)N2C(=O)CCN(C(=O)NCc3ccccc3)[C@H]2CN1Cc1cccc2ccccc12 |  |  |  |  | Activity (MDA-MB-231 [5]): Active
5 | O=S(=O)(Nc1ccc(-n2ccnc2)cc1)c1ccc(Cl)cc1 | 3.7% | 2.5% | 2 µM | 0.12 µM | inhibition [6]: Active; inhibition [7]: Dose-Dependent Effect; Activity (HCT-116 [8]): Dose-Dependent Effect; Activity (HCT-116 [9]): Dose-Dependent Effect; Activity (HCT-116 [10]): Dose-Dependent Effect; Activity [11]: 50%; Activity (HCT-116 [12]): Active; Activity (HCT-116 [13]): Active; Activity (HCT-116 [14]): Active; Activity (HCT-116 [15]): Active; Activity (HCT-116 [16]): Active; microsomal CLint [17]: < 3 µL/min/mg; half-life [18]: > 8.33 h; microsomal CLint [19]: < 3 µL/min/mg; half-life [20]: > 8.33 h
6 | O=S(=O)(Nc1cccc(-c2ccccn2)c1)c1ccc(-n2cccc2)cc1 | 6.3% | 6.4% | 46 µM | 66 µM | 
7 | O=S(=O)(Nc1cccc(-c2ccoc2)c1)c1ccc(Br)cc1 | 1.6% | 5.7% | 38 µM | 35 µM | 
8 | O=S(=O)(Nc1cccc(-c2ccsc2)c1)c1ccc(Br)cc1 | 2.7% | 0.8% | 25 µM | 19 µM | Activity (MDA-MB-231 [21]): Active; Activity (MDA-MB-231 [5]): Active
9 | O=S(=O)(Nc1cccc(-n2ccnc2)c1)c1ccc(C(F)(F)F)cc1 | 9.1% | 5.1% | 28 µM | 50 µM | 
10 | O=S(=O)(Nc1cccc(-c2ccccn2)c1)c1ccc(I)cc1 | 2.6% | 8.5% | 25 µM | 39 µM | 
11 | O=S(=O)(Nc1ccc(-c2ccccn2)cc1)c1ccc(Br)cc1 | 8.8% | 4.3% | 34 µM | 24 µM | 
12 | O=S(=O)(Nc1ccc(-n2ccnc2)cc1)c1ccc(Br)cc1 | 7.2% | 6.4% | > 50 µM | > 50 µM | 
13 | CCOC(=O)c1ccc(NS(=O)(=O)c2ccc(Br)cc2)cc1 | 21.6% | 18.8% | > 50 µM | > 50 µM | 
14 | O=S(=O)(Nc1cccc(-c2ccoc2)c1)c1ccc(C(F)(F)F)cc1 | 7.4% | 6.7% | > 50 µM | > 50 µM | 
15 | O=c1[nH]cc(F)c(=O)[nH]1 [FLUOROURACIL] |  |  | 13.7 µM | 23.1 µM | 
